Experiments:
[1] = stability test, storage at +25° C. in a thermostatic stove; type: physicochemical
Protocol: Some samples of the products obtained as described in the previous examples are subjected to stability tests, storing them at +25° C., in a thermostatic stove.
The SAMe ion content analysis (FIG. 3) and the diastereomeric purity relative to the (SS) isomer (FIG. 4) are periodically repeated, and the result is compared with the starting value for the same sample, obtaining the results reported.
The data obtained with the product obtained according to EP 1896489 and two commercial samples of SAMe, 1,4-butanedisulphate salt (SD4 Test 1) and Pates salt (batch S1S1057B), are compared.

[2] = accelerated stability test, thermostatic stove at +55° C., 5 days; type: physicochemical
Protocol: The product obtained as described in Example 6 (comprising SAMe and phytic acid) and a sample of SAMe inositol hexaphosphate obtained as described in Example 5 are subjected to an accelerated stability test, incubated in a thermostatic stove at +55° C., and the analyses are repeated after 5 days.
The samples are analysed for the following values: • SAMe ion content (total of all enantiomers) determined by HPLC and expressed as % by weight • enantiomeric purity, determined by HPLC and expressed as % of (SS) isomer • active ingredient content, calculated by multiplying the previous two values and expressed as % by weight of (SS)SAMe • overall purity, determined by HPLC as SAMe area/total area of chromatogram, expressed as area %. The figure comprises the values of all known degradation impurities.

[3] = Pharmacokinetic profile in the rat (SAMe plasma levels after oral administration by cannula); type: in vivo, Sprague Dawley rats; settings: by cannula in water, 134 mg/kg and 95 mg/kg, equal SAMe ion dose, 0-24 h (FIG. 1, FIG. 2)
Protocol: 70 Sprague Dawley rats (35 male and 35 female), aged 7-9 weeks and weighing 176-200 g, were acclimatized in a cage for two weeks before the start of the treatment, maintained at +22° C. and 55% relative humidity. The rats were fed on 4RF 21 (Mucedola) feed, and weighed before the beginning and at the end of the test. At the time of treatment, 32 animals per group (16 males and 16 females) were selected from those with the most similar weights, and assigned to the two treatments.
The product was administered by cannula, dissolved in water, at two dose levels, namely 134 mg/kg and 95 mg/kg. The rats were fasted overnight before administration and for a further two hours after administration. The two equimolar doses guaranteed an equal intake of SAMe ion.
The blood levels of SAMe were assayed by taking a sample from the tail vein at fixed intervals, at times 0 (pre-administration), 0.5, 1, 1.5, 2, 4, 8 and 24 hours after administration. The blood samples were centrifuged after addition of EDTA to separate the plasma from the cell fraction. The plasma was then analysed by HPLC according to the method reported in Wise, Fullerton J. Liq. Chromatogr. […]
The SAMe plasma concentration values are also used to determine, according to the Area Under Curve (AUC) calculation, the total quantity of active ingredient absorbed, obtaining the values set out in FIG. 2.

Compound: C[S+](CC[C@H](N)C(=O)[O-])C[C@H]1O[C@@H](n2cnc3c(N)ncnc32)[C@H](O)[C@@H]1O.O=S(=O)(O)CCCCS(=O)(=O)O (some centres unmarked) [SD4 Test 1, reference compound]
- stability of (SS)SAMe isomer content / diastereomeric purity versus starting value (FIG. 4) [1]: stable for longer

Compound: C[S@@+](CC[C@H](N)C(=O)[O-])C[C@H]1O[C@@H](n2cnc3c(N)ncnc32)[C@H](O)[C@@H]1O.O=P(O)(O)O[C@H]1[C@H](OP(=O)(O)O)[C@@H](OP(=O)(O)O)[C@H](OP(=O)(O)O)[C@@H](OP(=O)(O)O)[C@H]1OP(=O)(O)O [AT1003, SAMe inositol hexaphosphate]
- Purity (% area), final value ([2]; HPLC SAMe area/total area, after 5 days at +55° C.): 90.0%
- Purity (% area), starting value ([2]; HPLC SAMe area/total area, starting value): 95.98%
- degradation by isomerization of (SS)SAMe after the stress test ([2]; after 5 days at +55° C.): maintains an excess of the (SS)SAMe form
- (SS)SAMe content (active ingredient, SAMe content x enantiomeric purity), final value ([2]; after 5 days at +55° C., % by weight): 21.28%
- (SS)SAMe content (active ingredient, SAMe content x enantiomeric purity), starting value ([2]; starting value, % by weight): 26.59%
- stability of (SS)SAMe isomer content / diastereomeric purity versus starting value (FIG. 4) [1]: stable for longer

Compound: SAMe inositol hexaphosphate [SAMe IP6]
- absorption (AUC) and plasma concentration of SAMe versus SAMe Pates [3]: better absorption and a higher plasma concentration of active ingredient
